Measurements published in the NIST ThermoML archive (doi:10.1016/j.jct.2006.05.008).

Assay: molar heat capacity at constant pressure
Settings: 101.33 kPa

CCC[n+]1ccn(C)c1.[Br-] [1-methyl-3-propylimidazolium bromide]
Settings	molar heat capacity at constant pressure [J/K/mol]
79.74 K, Crystal, Vacuum adiabatic calorimetry	92.59
79.94 K, Crystal, Vacuum adiabatic calorimetry	92.76
81.02 K, Metastable crystal, Small (less than 1 g) adiabatic calorimetry	99.02
81.27 K, Crystal, Vacuum adiabatic calorimetry	93.84
81.34 K, Glass, Small (less than 1 g) adiabatic calorimetry	99.34
82.19 K, Crystal, Vacuum adiabatic calorimetry	94.55
82.6 K, Crystal, Vacuum adiabatic calorimetry	94.86
83.24 K, Metastable crystal, Small (less than 1 g) adiabatic calorimetry	100.47
83.87 K, Glass, Small (less than 1 g) adiabatic calorimetry	101.14
83.93 K, Crystal, Vacuum adiabatic calorimetry	95.59
84.2 K, Crystal, Vacuum adiabatic calorimetry	95.76
85.27 K, Crystal, Vacuum adiabatic calorimetry	96.54
85.49 K, Metastable crystal, Small (less than 1 g) adiabatic calorimetry	101.89
86.22 K, Crystal, Vacuum adiabatic calorimetry	97.26
86.42 K, Glass, Small (less than 1 g) adiabatic calorimetry	103.04
86.6 K, Crystal, Vacuum adiabatic calorimetry	97.57
87.75 K, Metastable crystal, Small (less than 1 g) adiabatic calorimetry	103.44
87.94 K, Crystal, Vacuum adiabatic calorimetry	98.49
88.23 K, Crystal, Vacuum adiabatic calorimetry	98.81
89 K, Glass, Small (less than 1 g) adiabatic calorimetry	105.01
89.27 K, Crystal, Vacuum adiabatic calorimetry	99.53
90.04 K, Metastable crystal, Small (less than 1 g) adiabatic calorimetry	104.98
90.61 K, Crystal, Vacuum adiabatic calorimetry	100.47
91.6 K, Glass, Small (less than 1 g) adiabatic calorimetry	106.89
91.95 K, Crystal, Vacuum adiabatic calorimetry	101.38
92.27 K, Crystal, Vacuum adiabatic calorimetry	101.66
92.34 K, Metastable crystal, Small (less than 1 g) adiabatic calorimetry	106.48
93.29 K, Crystal, Vacuum adiabatic calorimetry	102.41
94.22 K, Glass, Small (less than 1 g) adiabatic calorimetry	108.72
94.29 K, Crystal, Vacuum adiabatic calorimetry	103.09
94.64 K, Crystal, Vacuum adiabatic calorimetry	103.36
94.66 K, Metastable crystal, Small (less than 1 g) adiabatic calorimetry	107.94
95.98 K, Crystal, Vacuum adiabatic calorimetry	104.28
96.31 K, Crystal, Vacuum adiabatic calorimetry	104.51
96.86 K, Glass, Small (less than 1 g) adiabatic calorimetry	110.58
97 K, Metastable crystal, Small (less than 1 g) adiabatic calorimetry	109.41
97.33 K, Crystal, Vacuum adiabatic calorimetry	105.24
98.33 K, Crystal, Vacuum adiabatic calorimetry	105.88
98.67 K, Crystal, Vacuum adiabatic calorimetry	106.05
99.35 K, Metastable crystal, Small (less than 1 g) adiabatic calorimetry	110.84
99.51 K, Glass, Small (less than 1 g) adiabatic calorimetry	112.37
100.03 K, Crystal, Vacuum adiabatic calorimetry	106.92
100.36 K, Crystal, Vacuum adiabatic calorimetry	107.18
101.38 K, Crystal, Vacuum adiabatic calorimetry	107.81
101.71 K, Metastable crystal, Small (less than 1 g) adiabatic calorimetry	112.27
102.18 K, Glass, Small (less than 1 g) adiabatic calorimetry	114.14
102.39 K, Crystal, Vacuum adiabatic calorimetry	108.44
102.74 K, Crystal, Vacuum adiabatic calorimetry	108.69
104.09 K, Crystal, Vacuum adiabatic calorimetry	109.46
104.09 K, Metastable crystal, Small (less than 1 g) adiabatic calorimetry	113.67
104.42 K, Crystal, Vacuum adiabatic calorimetry	109.77
104.87 K, Glass, Small (less than 1 g) adiabatic calorimetry	115.91
105.45 K, Crystal, Vacuum adiabatic calorimetry	110.36
106.45 K, Crystal, Vacuum adiabatic calorimetry	111.06
106.47 K, Metastable crystal, Small (less than 1 g) adiabatic calorimetry	115.09
106.81 K, Crystal, Vacuum adiabatic calorimetry	111.31
107.56 K, Glass, Small (less than 1 g) adiabatic calorimetry	117.68
108.17 K, Crystal, Vacuum adiabatic calorimetry	112.14
108.48 K, Crystal, Vacuum adiabatic calorimetry	112.42
108.88 K, Metastable crystal, Small (less than 1 g) adiabatic calorimetry	116.5
109.53 K, Crystal, Vacuum adiabatic calorimetry	112.92
110.28 K, Glass, Small (less than 1 g) adiabatic calorimetry	119.33
110.52 K, Crystal, Vacuum adiabatic calorimetry	113.6
110.89 K, Crystal, Vacuum adiabatic calorimetry	113.71
111.29 K, Metastable crystal, Small (less than 1 g) adiabatic calorimetry	117.82
112.25 K, Crystal, Vacuum adiabatic calorimetry	114.5
112.57 K, Crystal, Vacuum adiabatic calorimetry	114.76
113 K, Glass, Small (less than 1 g) adiabatic calorimetry	121
113.61 K, Crystal, Vacuum adiabatic calorimetry	115.32
113.71 K, Metastable crystal, Small (less than 1 g) adiabatic calorimetry	119.15
114.61 K, Crystal, Vacuum adiabatic calorimetry	115.9
114.97 K, Crystal, Vacuum adiabatic calorimetry	116.19
115.74 K, Glass, Small (less than 1 g) adiabatic calorimetry	122.66
116.15 K, Metastable crystal, Small (less than 1 g) adiabatic calorimetry	120.5
116.34 K, Crystal, Vacuum adiabatic calorimetry	116.93
116.65 K, Crystal, Vacuum adiabatic calorimetry	117.03
117.71 K, Crystal, Vacuum adiabatic calorimetry	117.69
118.48 K, Glass, Small (less than 1 g) adiabatic calorimetry	124.31
118.59 K, Metastable crystal, Small (less than 1 g) adiabatic calorimetry	121.83
118.69 K, Crystal, Vacuum adiabatic calorimetry	118.24
119.07 K, Crystal, Vacuum adiabatic calorimetry	118.47
120.44 K, Crystal, Vacuum adiabatic calorimetry	119.22
120.73 K, Crystal, Vacuum adiabatic calorimetry	119.36
121.04 K, Metastable crystal, Small (less than 1 g) adiabatic calorimetry	123.15
121.24 K, Glass, Small (less than 1 g) adiabatic calorimetry	125.94
121.82 K, Crystal, Vacuum adiabatic calorimetry	120.01
122.78 K, Crystal, Vacuum adiabatic calorimetry	120.51
123.19 K, Crystal, Vacuum adiabatic calorimetry	120.74
123.49 K, Metastable crystal, Small (less than 1 g) adiabatic calorimetry	124.47
124.01 K, Glass, Small (less than 1 g) adiabatic calorimetry	127.58
124.56 K, Crystal, Vacuum adiabatic calorimetry	121.49
124.82 K, Crystal, Vacuum adiabatic calorimetry	121.64
125.93 K, Crystal, Vacuum adiabatic calorimetry	122.24
125.95 K, Metastable crystal, Small (less than 1 g) adiabatic calorimetry	125.81
126.78 K, Glass, Small (less than 1 g) adiabatic calorimetry	129.18
126.87 K, Crystal, Vacuum adiabatic calorimetry	122.8
127.3 K, Crystal, Vacuum adiabatic calorimetry	122.93
128.42 K, Metastable crystal, Small (less than 1 g) adiabatic calorimetry	127.1
128.67 K, Crystal, Vacuum adiabatic calorimetry	123.68
128.92 K, Crystal, Vacuum adiabatic calorimetry	123.91
129.56 K, Glass, Small (less than 1 g) adiabatic calorimetry	130.84
130.04 K, Crystal, Vacuum adiabatic calorimetry	124.38
130.89 K, Metastable crystal, Small (less than 1 g) adiabatic calorimetry	128.38
130.97 K, Crystal, Vacuum adiabatic calorimetry	125.11
131.41 K, Crystal, Vacuum adiabatic calorimetry	125.15
132.34 K, Glass, Small (less than 1 g) adiabatic calorimetry	132.48
132.79 K, Crystal, Vacuum adiabatic calorimetry	125.91
133.03 K, Crystal, Vacuum adiabatic calorimetry	126.19
133.37 K, Metastable crystal, Small (less than 1 g) adiabatic calorimetry	129.68
134.16 K, Crystal, Vacuum adiabatic calorimetry	126.6
135.08 K, Crystal, Vacuum adiabatic calorimetry	127.08
135.13 K, Glass, Small (less than 1 g) adiabatic calorimetry	134.09
135.53 K, Crystal, Vacuum adiabatic calorimetry	127.32
135.85 K, Metastable crystal, Small (less than 1 g) adiabatic calorimetry	130.98
136.16 K, Crystal, Vacuum adiabatic calorimetry	127.66
136.91 K, Crystal, Vacuum adiabatic calorimetry	128.04
137.14 K, Crystal, Vacuum adiabatic calorimetry	128.2
137.92 K, Glass, Small (less than 1 g) adiabatic calorimetry	135.74
138.28 K, Crystal, Vacuum adiabatic calorimetry	128.82
138.34 K, Metastable crystal, Small (less than 1 g) adiabatic calorimetry	132.27
138.66 K, Crystal, Vacuum adiabatic calorimetry	129
139.66 K, Crystal, Vacuum adiabatic calorimetry	129.53
140.72 K, Crystal, Vacuum adiabatic calorimetry	130.08
140.72 K, Glass, Small (less than 1 g) adiabatic calorimetry	137.41
140.83 K, Metastable crystal, Small (less than 1 g) adiabatic calorimetry	133.54
141.03 K, Crystal, Vacuum adiabatic calorimetry	130.25
142.4 K, Crystal, Vacuum adiabatic calorimetry	130.91
142.78 K, Crystal, Vacuum adiabatic calorimetry	131.16
143.33 K, Metastable crystal, Small (less than 1 g) adiabatic calorimetry	134.81
143.52 K, Glass, Small (less than 1 g) adiabatic calorimetry	139.08
143.79 K, Crystal, Vacuum adiabatic calorimetry	131.72
144.84 K, Crystal, Vacuum adiabatic calorimetry	132.23
145.17 K, Crystal, Vacuum adiabatic calorimetry	132.41
145.82 K, Metastable crystal, Small (less than 1 g) adiabatic calorimetry	136.13
